Legend:
[1] = Blood hydroxytyrosol after oral administration with EGCG or EGC (Example 1, HPLC); type: in vivo, SD (IGS) male rats; details: rats
Source text: The present inventors analyzed the influence of the particular compound having a galloyl group, i.e., EGCG, on the absorption of hydroxytyrosol in the body. At the same time, the inventors also analyzed the influence of EGC, a compound having no galloyl group, on the absorption of hydroxytyrosol in the body. By comparing the results for EGCG with those for the control, we investigated whether the galloyl group is involved in the absorption of hydroxytyrosol in the body.
SD (IGS) male rats (5 weeks old) were purchased from Oriental Bioservice, Inc. and habituated to the test environment for one week, and then those rats which were well grown were put to use in the selected test. Those rats fasted overnight were divided into three groups each consisting of 4 or 5 animals. Group 1 (control) was given 5 mL/kg of distilled water and 50 mg/5 mL/kg of a commercial hydroxytyrosol solution in distilled water; Group 2 was given 100 mg/5 mL/kg of an EGC solution in distilled water and 50 mg/5 mL/kg of a hydroxytyrosol solution in distilled water; and Group 3 was given 150 mg/5 mL/kg of an EGCG solution in distilled water and 50 mg/5 mL/kg of a hydroxytyrosol solution in distilled water—all of the groups were orally administered using a sonde. Before and at 0.25, 0.5, 1, 3 and 6 hours after the start of treatment, blood was sampled from the tail vein using a heparin-coated blood collection tube and centrifuged (at 8000 rpm for 10 min) to obtain plasma samples. The obtained plasma samples were subjected to deconjugation and deproteinization treatments, and the resulting supernatants were concentrated under reduced pressure, redissolved in 20% acetonitrile, and passed through a filter. The resulting solutions were analyzed by HPLC to determine their peak areas. Thus, quantification of hydroxytyrosol was performed. The EGCG used in this example was a commercially available EGCG product (EGCG purity: 94%). The HPLC conditions are shown below.
Column: X-bridge C18 (3.5 μm, 2.1×150 mm, produced by Waters)
Mobile phase: A: 0.1% acetic acid solution in water, B: 0.1% acetic acid/90% acetonitrile solution in water

[2] = Blood hydroxytyrosol after oral administration with reduced doses of grape seed extract (Example 3); type: in vivo; details: male, SD (IGS), rat, rats, hydroxytyrosol 30 mg/kg alone (control), plasma, read-out: AUC of hydroxytyrosol at 0 to 6 hours
Source text: The present inventors investigated whether the same promoting effect on the absorption of hydroxytyrosol in the body as observed in Example 2 can be observed even if the dose of the grape seed extract is reduced.
SD (IGS) male rats (9.5 weeks old) were purchased from Oriental Bioservice, Inc. and habituated to the test environment for two weeks, and then those rats which were well grown were put to use in the selected test. Those rats fasted overnight were divided into three groups each consisting of 4 animals. Group 1 (control) was given 30 mg/5 mL/kg of a hydroxytyrosol solution in distilled water; Group 2 was given 30 mg/kg of hydroxytyrosol plus 5 mL/kg of a solution of 150 mg/kg grape seed extract in distilled water; and Group 3 was given 30 mg/kg of hydroxytyrosol plus 5 mL/kg of a solution of 250 mg/kg grape seed extract in distilled water—all of the groups were orally administered using a sonde. Before and at 0.25, 0.5, 1, 2, 3 and 6 hours after the start of treatment, blood was sampled from the tail vein using a heparin-coated blood collection tube and centrifuged (at 8000 rpm for 10 min) to obtain plasma samples. […] The resulting solutions were analyzed by LC/MS/MS, and quantification of hydroxytyrosol was performed using the internal standard method. […]

[3] = Blood hydroxytyrosol after oral administration with 150 to 750 mg/kg grape seed extract (Example 4); type: in vivo; details: male, SD (IGS), rat, rats, hydroxytyrosol 30 mg/kg alone (control), plasma, read-out: AUC of hydroxytyrosol at 0 to 6 hours
Procedure: The present inventors investigated whether the same promoting effect on the absorption of hydroxytyrosol in the body can be observed even if the dose of the grape seed extract is further increased in the same test system as used for the investigations in Examples 2 and 3. […] The method for calculating this purity will be presented later in Example 5. Also, the amount of a galloyl group contained in the grape seed extract was measured as the amount of a galloyl ester and determined to be about 2.2% by weight. The method for calculating this amount will be presented later in Example 6.
SD (IGS) male rats (8 weeks old) were purchased from Oriental Bioservice, Inc. and habituated to the test environment for one week, and then those rats which were well grown were put to use in the selected test. Those rats fasted overnight were divided into five groups each consisting of 4 animals (however, Group 5 consists of 2 animals). […]
The obtained plasma samples were subjected to deconjugation and deproteinization treatments, and the resulting supernatants were concentrated under reduced pressure, redissolved in 20% acetonitrile, and passed through a filter. The resulting solutions were analyzed by LC/MS/MS, and quantification of hydroxytyrosol was performed using the internal standard method. […]

[4] = Blood hydroxytyrosol after oral administration with 500 mg/kg grape seed extract (Example 2, LC/MS/MS); type: in vivo, SD (IGS) male rats; details: rats, hydroxytyrosol 30 mg/kg alone
Procedure: The present inventors investigated the influence of an OPC on the absorption of hydroxytyrosol in the body.
SD (IGS) male rats (9 weeks old) were purchased from Oriental Bioservice, Inc. and habituated to the test environment for one week, and then those rats which were well grown were put to use in the selected test. Those rats fasted overnight were divided into two groups each consisting of 5 or 6 animals. Group 1 (control) was given 30 mg/5 mL/kg of a hydroxytyrosol solution in distilled water; and Group 2 was given 30 mg/kg of hydroxytyrosol plus 5 mL/kg of a solution of 500 mg/kg grape seed extract in distilled water—both of the groups were orally administered using a sonde. Before and at 0.25, 0.5, 1, 2, 3 and 6 hours after the start of treatment, blood was sampled from the tail vein using a heparin-coated blood collection tube and centrifuged (at 8000 rpm for 10 min) to obtain plasma samples. The obtained plasma samples were subjected to deconjugation and deproteinization treatments, and the resulting supernatants were concentrated under reduced pressure, redissolved in 20% acetonitrile, and passed through a filter. The resulting solutions were analyzed by LC/MS/MS, and quantification of hydroxytyrosol was performed using the internal standard method. HPLC conditions
Internal standard (I.S.): 3-(4-hydroxyphenyl)-1-propanol […]

[5] = hydroxytyrosol 50 mg/kg concurrently with EGCG 150 mg/kg

| blood hydroxytyrosol concentration after its peak (absorption profile) [1, 5] | time at which blood hydroxytyrosol concentration reached its peak [1, 5] | AUC ([1]; male, SD (IGS), rat, hydroxytyrosol 50 mg/kg alone (control), plasma, read-out: AUC of hydroxytyrosol (amount absorbed in the body)) | time at which blood hydroxytyrosol concentration reached its peak ([1]; hydroxytyrosol 50 mg/kg alone) | AUC [2] | AUC [3] | blood hydroxytyrosol at 2 or 3 hours after administration [4] | SMILES |
| --- | --- | --- | --- | --- | --- | --- | --- |
| kept high even thereafter | 30 min |  |  |  |  |  | O=C(O[C@@H]1Cc2c(O)cc(O)cc2O[C@@H]1c1cc(O)c(O)c(O)c1)c1cc(O)c(O)c(O)c1 [EGCG, epigallocatechin gallate] |
|  |  | 12000 ng·h/mL | 18 min | 8640 ng·h/mL | 7360 ng·h/mL | little or no hydroxytyrosol was detected | OCCc1ccc(O)c(O)c1 [hydroxytyrosol, 3,4-dihydroxyphenylethanol] |

From patent US20160184434A1, “AGENT FOR PROMOTING IN VIVO ABSORPTION OF HYDROXYTYROSOL AND DERIVATIVES THEREOF AND USE OF SAME” (priority 2013, published 2016)
